One compound from ChEMBL document CHEMBL5385844, “Discovery of novel imidazole chemotypes as isoform-selective JNK3 inhibitors for the treatment of Alzheimer's disease” (Eur J Med Chem, 2023) can be followed below.

A short description of data set [1]: Permeability of the compound by PAMPA-BBB assay. It counts as ADME. Conditions: read-out: permeability.
The subject of data set [2] is Mus musculus. Kind of data set: Anti-alzheimer activity against homozygous 3 x Tg mouse model assessed as time spent in platform quadrant at 30 mg/kg, po administered daily for 2 months and measured after 27 days of treatment by Morris water maze test (reference value: 15.68 +/- 1.65 sec). The format is functional. The settings on record: 1460 h.
Data set [3] is described as follows: Toxicity in APP/PS1 mouse assessed as weight change at 30 mg/kg, po treated 3 times/week for 1 month. It counts as organism-based. The settings on record: in vivo, 730 h, time 1 months.
Data set [4] in a line: Toxicity in APP/PS1 mouse assessed as dead animal at 30 mg/kg, po treated 3 times/week for 1 month. It counts as organism-based. The settings on record: in vivo, 730 h, time 1 months.
Data set [5] is described as follows: Toxicity in APP/PS1 mouse assessed as abnormal symptoms at 30 mg/kg, po treated 3 times/week for 1 month. The format is organism-based. The settings on record: in vivo, 730 h, time 1 months.
Data set [6] concerns Mus musculus. Kind of data set: Anti-alzheimer activity against APP/PS1 dE9 double transgenic mouse model assessed as time spent in platform quadrant at 30 mg/kg, po administered 3 times/week for 1 month and measured after 40 to 45 days of treatment by Morris water maze test (reference value: 11.06 +/- 1.53 %). The format is functional. The settings on record: time 27 day.
Data set [7] concerns Mus musculus. Description: Anti-alzheimer activity against APP/PS1 dE9 double transgenic mouse model assessed as time spent in platform quadrant at 10 mg/kg, po administered 3 times/week for 1 month and measured after 40 to 45 days of treatment by Morris water maze test (reference value: 11.06 +/- 1.53 %). Conditions: time 27 day. It counts as functional.
A short description of data set [8]: Drug uptake in Sprague-Dawley rat brain at 30 mg/kg, po measured at Tmax. The format is ADME, organism-based. The settings on record: in vivo.
In data set [9] the test system is Mus musculus. Kind of data set: Anti-alzheimer activity against APP/PS1 dE9 double transgenic mouse model assessed as spontaneous alteration at 30 mg/kg, po administered 3 times/week for 1 month and measured after 27 days of treatment by Y-maze test (reference value: 46.70 +/- 3.32%). The format is functional. The settings on record: time 1 months, 730 h.
Data set [10] relates to Mus musculus. Description: Anti-alzheimer activity against APP/PS1 dE9 double transgenic mouse model assessed as spontaneous alteration at 10 mg/kg, po administered 3 times/week for 1 month and measured after 27 days of treatment by Y-maze test (reference value: 46.70 +/- 3.32%). The format is functional. The settings on record: time 1 months, 730 h.
Data set [11] in a line: Toxicity in APP/PS1 mouse assessed as weight change at 10 mg/kg, po treated 3 times/week for 1 month. The format is organism-based. The settings on record: in vivo, 730 h, time 1 months.
The nature of data set [12]: Toxicity in APP/PS1 mouse assessed as dead animal at 10 mg/kg, po treated 3 times/week for 1 month. It counts as organism-based. Conditions: in vivo, 730 h, time 1 months.
The nature of data set [13]: Cmax in Sprague-Dawley rat at 3 mg/kg, po measured upto 24 hrs by UPLC analysis. It counts as ADME, organism-based. Set-up: dose 3 mg/kg, time < 24 hrs, route po. The settings on record: in vivo.
Data set [14] relates to Cortical neurone. Kind of data set: Neuroprotective activity against Amyloid beta (1 to 42)-induced toxicity in rat cortical neuron assessed as cell viability at 20 uM measured after 48 hrs by MTT assay. The format is functional. Conditions: read-out: Activity.
Data set [15] concerns the target Mitogen-activated protein kinase 10 (Homo sapiens, UniProt P53779). Kind of data set: Inhibition of human JNK3 incubated for 40 mins in presence of ATP and [gamma33P-ATP] by scintillation counting method. Conditions: read-out: IC50.
Data set [16] addresses Mitogen-activated protein kinase 9 (Homo sapiens, UniProt P45984). Description: Inhibition of human JNK2 incubated for 40 mins in presence of ATP and [gamma33P-ATP] by scintillation counting method.
For data set [17], the target named is T1, Dual specificity mitogen-activated protein kinase kinase 6 (Homo sapiens, UniProt P52564).
T1 sequence (P52564 whole entry): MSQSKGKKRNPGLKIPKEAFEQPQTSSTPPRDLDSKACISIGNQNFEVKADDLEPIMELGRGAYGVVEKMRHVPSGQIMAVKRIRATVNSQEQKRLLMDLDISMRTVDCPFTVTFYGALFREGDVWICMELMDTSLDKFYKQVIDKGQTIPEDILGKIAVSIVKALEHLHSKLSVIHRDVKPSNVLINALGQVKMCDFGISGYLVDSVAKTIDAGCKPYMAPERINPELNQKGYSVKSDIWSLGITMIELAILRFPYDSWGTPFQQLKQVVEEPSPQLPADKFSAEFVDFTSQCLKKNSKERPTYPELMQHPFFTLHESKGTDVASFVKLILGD
Description: Inhibition of MKK6 (unknown origin) assessed as incorporation of 33P-ATP.

The target in data set [18] is Mitogen-activated protein kinase 14 (Homo sapiens, UniProt Q16539). Kind of data set: Inhibition of human SAPK2a assessed as incorporation of 33P-ATP.
Data set [19] can be described thus: Inhibition of human SAPK2a T106 mutant assessed as incorporation of 33P-ATP.
For data set [20], the target named is Mitogen-activated protein kinase 11 (Homo sapiens, UniProt Q15759). Kind of data set: Inhibition of human SAPK2b assessed as incorporation of 33P-ATP.
Data set [21] has as its target T2, Dual specificity mitogen-activated protein kinase kinase 4 (Homo sapiens, UniProt P45985).
T2 sequence (P45985 whole entry): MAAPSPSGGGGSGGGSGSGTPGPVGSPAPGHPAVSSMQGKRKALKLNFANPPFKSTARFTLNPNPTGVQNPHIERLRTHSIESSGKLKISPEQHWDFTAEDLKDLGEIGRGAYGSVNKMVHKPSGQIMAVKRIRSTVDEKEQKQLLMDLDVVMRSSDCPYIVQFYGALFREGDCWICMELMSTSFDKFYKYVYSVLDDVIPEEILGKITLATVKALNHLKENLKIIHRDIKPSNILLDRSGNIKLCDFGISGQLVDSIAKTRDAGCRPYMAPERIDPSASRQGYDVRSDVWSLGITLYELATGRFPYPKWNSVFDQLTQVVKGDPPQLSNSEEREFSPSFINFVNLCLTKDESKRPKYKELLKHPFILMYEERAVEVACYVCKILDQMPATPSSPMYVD
Description: Inhibition of MKK4 (unknown origin) assessed as incorporation of 33P-ATP.

For data set [22], the system named is Cortical neurone. Description: Neuroprotective activity against Amyloid beta (1 to 42)-induced toxicity in rat cortical neuron assessed as cell viability measured after 24 to 48 hrs by MTT assay. The format is functional, cell-based. Conditions: time 24-48 hrs.

Structures are written as SMILES.

Sequence of Mitogen-activated protein kinase 14 (Q16539 whole entry): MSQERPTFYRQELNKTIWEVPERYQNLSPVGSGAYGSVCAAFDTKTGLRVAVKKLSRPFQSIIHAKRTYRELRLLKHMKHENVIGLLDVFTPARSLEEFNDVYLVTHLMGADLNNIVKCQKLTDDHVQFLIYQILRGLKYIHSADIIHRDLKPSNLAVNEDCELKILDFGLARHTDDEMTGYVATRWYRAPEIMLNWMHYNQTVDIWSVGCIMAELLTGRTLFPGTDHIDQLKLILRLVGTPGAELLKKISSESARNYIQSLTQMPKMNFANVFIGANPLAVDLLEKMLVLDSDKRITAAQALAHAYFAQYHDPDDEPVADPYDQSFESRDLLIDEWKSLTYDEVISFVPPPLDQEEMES
Sequence of Mitogen-activated protein kinase 11 (Q15759 whole entry): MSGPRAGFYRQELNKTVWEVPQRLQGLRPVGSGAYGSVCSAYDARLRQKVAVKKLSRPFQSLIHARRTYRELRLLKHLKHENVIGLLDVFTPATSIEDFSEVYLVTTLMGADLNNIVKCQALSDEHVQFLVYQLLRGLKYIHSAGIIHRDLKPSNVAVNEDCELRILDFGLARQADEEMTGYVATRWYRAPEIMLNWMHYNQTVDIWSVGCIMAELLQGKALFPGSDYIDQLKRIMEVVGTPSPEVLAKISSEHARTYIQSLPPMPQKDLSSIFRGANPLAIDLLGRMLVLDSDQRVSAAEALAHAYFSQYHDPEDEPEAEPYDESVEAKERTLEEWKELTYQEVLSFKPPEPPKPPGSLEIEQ
Sequence of Mitogen-activated protein kinase 9 (P45984 whole entry): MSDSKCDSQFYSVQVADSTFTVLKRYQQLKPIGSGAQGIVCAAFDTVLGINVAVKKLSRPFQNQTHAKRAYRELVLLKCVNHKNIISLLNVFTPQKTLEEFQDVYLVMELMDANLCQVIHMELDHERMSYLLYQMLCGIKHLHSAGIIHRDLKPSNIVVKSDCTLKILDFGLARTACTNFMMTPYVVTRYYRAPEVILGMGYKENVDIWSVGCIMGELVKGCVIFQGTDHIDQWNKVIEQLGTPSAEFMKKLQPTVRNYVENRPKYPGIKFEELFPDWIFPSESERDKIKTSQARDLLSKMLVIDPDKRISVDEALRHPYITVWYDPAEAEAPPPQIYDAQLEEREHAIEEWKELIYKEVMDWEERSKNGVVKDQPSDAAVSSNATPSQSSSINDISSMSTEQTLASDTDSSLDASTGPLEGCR
Sequence of Mitogen-activated protein kinase 10 (P53779 whole entry): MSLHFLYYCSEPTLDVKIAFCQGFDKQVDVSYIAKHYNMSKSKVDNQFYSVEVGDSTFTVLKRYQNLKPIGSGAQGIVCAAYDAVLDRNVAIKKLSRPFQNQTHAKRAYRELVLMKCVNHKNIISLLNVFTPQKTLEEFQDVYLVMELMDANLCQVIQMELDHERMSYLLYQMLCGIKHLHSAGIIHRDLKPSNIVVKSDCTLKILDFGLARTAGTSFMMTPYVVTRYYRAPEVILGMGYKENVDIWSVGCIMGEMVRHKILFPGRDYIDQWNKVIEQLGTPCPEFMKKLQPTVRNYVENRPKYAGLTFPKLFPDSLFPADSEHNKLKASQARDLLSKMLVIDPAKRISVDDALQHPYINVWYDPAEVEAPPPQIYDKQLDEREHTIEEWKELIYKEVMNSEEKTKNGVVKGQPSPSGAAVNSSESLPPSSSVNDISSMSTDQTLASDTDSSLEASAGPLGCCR

`N#CCc1cnc(-c2ccc3ccccc3c2)n1-c1ccnc(N[C@H]2CCCN(C(=O)C3CC3)C2)n1`: the Papp in data set [1] was 28.5 ×10⁻⁶ cm/s. The figures for the Time in the data set on Mus musculus [2], with Mus musculus [6] and with Mus musculus [7] were 13.24 s, 15.06 s and 10.53 s, respectively. Moreover, the Activity result in [3] is listed as “Non-Toxic”; in data set [4], “Non-Toxic”; in data set [5] it was “Non-Toxic”; in the data set with Mus musculus [9] it was 56.12%; in the data set with Mus musculus [10] it was 52.31%; in [11], “Non-Toxic”. Further, the Activity result in data set [12] is “Non-Toxic”; in the data set on Cortical neurone [22], “Dose-Dependent Effect”. In data set [8], this compound came in with a Drug uptake of 26 ng/g. In data set [13], this compound came in with a Cmax of 378 ng/mL. Further, the viability at 20 µM in the data set on Cortical neurone [14] came to 46.8%. In addition, the half-inhibitory concentration (IC50) came out at 1 nM in data set [15]; 144 nM in data set [16]; 15100 nM in data set [17]; 310 nM in data set [18]; 1190 nM in data set [19]; 280 nM in data set [20]. Further, the IC50 in data set [21] was determined as 970 nM.
